From ChEMBL document CHEMBL1157334, “Neuroprotective diterpenes from the fruiting body of Antrodia camphorata” (2006)

Columns and labels:
[1] = Neuroprotective effect against amyloid beta(25 to 35)-induced cell death in Harlan Sprague-Dawley rat pups cortical neurons assessed as cell death at 20 uM treated 2 hrs before amyloid beta(25 to 35) treatment after 40 hrs by MTT assay; conditions: for cell death at 20 µM: Rattus norvegicus, Harlan Sprague-Dawley, Cortical neurone
[2] = Neuroprotective effect against amyloid beta(25 to 35)-induced cell death in Harlan Sprague-Dawley rat pups cortical neurons assessed as cell death at 10 uM treated 2 hrs before amyloid beta(25 to 35) treatment after 40 hrs by MTT assay

Compound	cell death at 20 µM [1]	cell death [1]	cell death [2]
C=C1CC[C@@H]2[C@](C)(CO)[C@H](O)CC[C@@]2(C)[C@@H]1/C=C/C1=CCOC1=O	29.5%		
CC(=O)N[C@@H](CC(=O)O)C(=O)N[C@@H](CCC(=O)O)C(=O)N[C@H](C(=O)N[C@H](C=O)CC(=O)O)C(C)C	23.1%		
C=C1CC[C@H]2[C@@](C)(CO)CCC[C@]2(C)[C@H]1CCC1CCOC1=O (some centres not stated)	30.8%		
C=C1CC[C@H]2[C@@](C)(CO)CCC[C@]2(C)[C@H]1CCC1=CCOC1=O	32.6%		
C=C1CC[C@@H]2[C@](C)(CC[C@H](O)[C@]2(C)CO)[C@H]1/C=C/C1CCOC1=O (stereo in doubt; 2)		26.3%	29.5%
C=C1CC[C@@H]2[C@](C)(CC[C@H](O)[C@]2(C)CO)[C@H]1/C=C/C1CCOC1=O (stereo in doubt; 3)	29.3%		
